ChEMBL document CHEMBL4390652, “Design, biological evaluation and X-ray crystallography of nanomolar multifunctional ligands targeting simultaneously acetylcholinesterase and glycogen synthase kinase-3” (Eur J Med Chem, 2019)

Experiments:
[1] = target: Serine/threonine-protein kinase VRK2 (Homo sapiens) (UniProt Q86Y07); test: Binding affinity to wild-type human partial length VRK2 (M1 to T336 residues) expressed in mammalian expression system assessed as residual binding level at 10 uM by Kinomescan method relative to control
[2] = target: Serine/threonine-protein kinase 25 (Homo sapiens) (UniProt O00506); test: Binding affinity to wild-type human partial length YSK1 (V14 to H295 residues) expressed in bacterial expression system assessed as residual binding level at 10 uM by Kinomescan method relative to control
[3] = target: Mitogen-activated protein kinase 1 (Homo sapiens) (UniProt P28482); test: Binding affinity to wild-type human full length ERK2 (M1 to S360 residues) expressed in bacterial expression system assessed as residual binding level at 10 uM by Kinomescan method relative to control
[4] = target: Cyclin-dependent kinase 5/CDK5 activator 1 (Homo sapiens, UniProt Q00535); type: protein-complex assay
Description: Inhibition of human recombinant CDK5/p25 using histone H1 as substrate in presence of [gamma-33P]ATP incubated for 30 mins by liquid scintillation counting assay

[5] = target: Mitogen-activated protein kinase kinase kinase 20 (Homo sapiens) (UniProt Q9NYL2); test: Binding affinity to wild-type human partial length ZAK (M1 to L331 residues) expressed in bacterial expression system assessed as residual binding level at 10 uM by Kinomescan method relative to control
Mitogen-activated protein kinase kinase kinase 20 (Homo sapiens), sequence (Q9NYL2 2-800 limits assumed): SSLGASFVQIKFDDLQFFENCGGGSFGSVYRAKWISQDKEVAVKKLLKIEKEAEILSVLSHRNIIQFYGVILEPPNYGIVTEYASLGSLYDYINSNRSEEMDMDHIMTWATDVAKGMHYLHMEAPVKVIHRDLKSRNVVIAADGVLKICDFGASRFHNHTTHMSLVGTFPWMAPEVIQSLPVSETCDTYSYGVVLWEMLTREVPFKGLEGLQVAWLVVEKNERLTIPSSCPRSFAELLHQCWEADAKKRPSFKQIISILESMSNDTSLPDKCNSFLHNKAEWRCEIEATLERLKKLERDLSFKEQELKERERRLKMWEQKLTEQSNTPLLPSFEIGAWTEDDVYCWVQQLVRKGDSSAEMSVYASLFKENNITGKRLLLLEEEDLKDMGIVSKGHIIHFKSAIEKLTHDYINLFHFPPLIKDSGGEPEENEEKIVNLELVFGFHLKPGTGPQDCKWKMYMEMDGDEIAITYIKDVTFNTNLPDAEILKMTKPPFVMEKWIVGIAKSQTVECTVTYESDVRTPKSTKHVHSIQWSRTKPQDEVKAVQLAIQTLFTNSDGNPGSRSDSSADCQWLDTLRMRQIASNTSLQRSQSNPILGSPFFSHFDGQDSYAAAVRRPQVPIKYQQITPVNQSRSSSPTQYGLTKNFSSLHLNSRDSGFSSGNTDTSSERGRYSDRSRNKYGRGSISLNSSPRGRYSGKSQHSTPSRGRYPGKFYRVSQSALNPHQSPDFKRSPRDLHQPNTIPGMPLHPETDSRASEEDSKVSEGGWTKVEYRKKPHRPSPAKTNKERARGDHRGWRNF

[6] = target: Activin receptor type-1 (Homo sapiens) (UniProt Q04771); test: Binding affinity to wild-type human ACVR1 (C188 to C509 residues) expressed in bacterial expression system assessed as residual binding level at 10 uM by Kinomescan method relative to control
[7] = target: Non-receptor tyrosine-protein kinase TNK1 (Homo sapiens) (UniProt Q13470); test: Binding affinity to wild-type human full length TNK1 (M1 to P661 residues) expressed in bacterial expression system assessed as residual binding level at 10 uM by Kinomescan method relative to control
[8] = target: Ephrin type-B receptor 1 (Homo sapiens) (UniProt P54762); test: Binding affinity to wild-type human partial length EPHB1 (P589 to T911 residues) expressed in bacterial expression system assessed as residual binding level at 10 uM by Kinomescan method relative to control
Ephrin type-B receptor 1 (Homo sapiens), sequence (P54762 whole entry, the tested form may be a part): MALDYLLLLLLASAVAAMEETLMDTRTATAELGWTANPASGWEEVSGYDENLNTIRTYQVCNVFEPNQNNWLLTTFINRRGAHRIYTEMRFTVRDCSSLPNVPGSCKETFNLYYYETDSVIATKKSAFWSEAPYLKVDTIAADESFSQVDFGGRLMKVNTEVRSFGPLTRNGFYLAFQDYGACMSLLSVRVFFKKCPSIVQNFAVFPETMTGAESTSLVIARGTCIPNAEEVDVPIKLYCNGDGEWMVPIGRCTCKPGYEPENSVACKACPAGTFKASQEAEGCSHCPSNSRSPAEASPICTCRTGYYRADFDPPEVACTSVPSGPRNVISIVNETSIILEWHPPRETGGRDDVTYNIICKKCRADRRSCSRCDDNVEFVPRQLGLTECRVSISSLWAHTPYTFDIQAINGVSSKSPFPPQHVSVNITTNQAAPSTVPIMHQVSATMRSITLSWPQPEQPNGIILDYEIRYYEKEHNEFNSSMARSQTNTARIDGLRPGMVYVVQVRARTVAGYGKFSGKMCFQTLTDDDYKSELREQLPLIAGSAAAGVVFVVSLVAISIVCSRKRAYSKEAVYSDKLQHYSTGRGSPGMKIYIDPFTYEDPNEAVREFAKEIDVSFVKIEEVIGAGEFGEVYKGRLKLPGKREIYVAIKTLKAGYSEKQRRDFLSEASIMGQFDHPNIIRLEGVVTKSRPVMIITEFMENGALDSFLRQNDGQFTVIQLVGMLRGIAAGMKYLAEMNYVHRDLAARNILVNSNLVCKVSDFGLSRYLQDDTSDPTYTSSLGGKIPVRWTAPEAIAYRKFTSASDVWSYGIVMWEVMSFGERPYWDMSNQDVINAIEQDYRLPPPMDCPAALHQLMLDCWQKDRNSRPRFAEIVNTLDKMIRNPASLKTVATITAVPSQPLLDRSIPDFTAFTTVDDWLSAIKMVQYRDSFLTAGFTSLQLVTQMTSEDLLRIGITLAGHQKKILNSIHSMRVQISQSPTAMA

[9] = target: Serine/threonine-protein kinase 17A (Homo sapiens) (UniProt Q9UEE5); test: Binding affinity to wild-type human partial length DRAK1 (R32 to E363 residues) expressed in bacterial expression system assessed as residual binding level at 10 uM by Kinomescan method relative to control
[10] = tested on: Receptor-type tyrosine-protein kinase FLT3 (Homo sapiens), P36888 [UNDEFINED MUTATION]; test: Binding affinity to human partial length FLT3 ITD/F691L double mutant expressed in bacterial expression system assessed as residual binding level at 10 uM by Kinomescan method relative to control
Receptor-type tyrosine-protein kinase FLT3 (Homo sapiens), P36888 [UNDEFINED MUTATION], sequence (P36888 whole entry, looked up, stated change not applied, the tested form may be a part): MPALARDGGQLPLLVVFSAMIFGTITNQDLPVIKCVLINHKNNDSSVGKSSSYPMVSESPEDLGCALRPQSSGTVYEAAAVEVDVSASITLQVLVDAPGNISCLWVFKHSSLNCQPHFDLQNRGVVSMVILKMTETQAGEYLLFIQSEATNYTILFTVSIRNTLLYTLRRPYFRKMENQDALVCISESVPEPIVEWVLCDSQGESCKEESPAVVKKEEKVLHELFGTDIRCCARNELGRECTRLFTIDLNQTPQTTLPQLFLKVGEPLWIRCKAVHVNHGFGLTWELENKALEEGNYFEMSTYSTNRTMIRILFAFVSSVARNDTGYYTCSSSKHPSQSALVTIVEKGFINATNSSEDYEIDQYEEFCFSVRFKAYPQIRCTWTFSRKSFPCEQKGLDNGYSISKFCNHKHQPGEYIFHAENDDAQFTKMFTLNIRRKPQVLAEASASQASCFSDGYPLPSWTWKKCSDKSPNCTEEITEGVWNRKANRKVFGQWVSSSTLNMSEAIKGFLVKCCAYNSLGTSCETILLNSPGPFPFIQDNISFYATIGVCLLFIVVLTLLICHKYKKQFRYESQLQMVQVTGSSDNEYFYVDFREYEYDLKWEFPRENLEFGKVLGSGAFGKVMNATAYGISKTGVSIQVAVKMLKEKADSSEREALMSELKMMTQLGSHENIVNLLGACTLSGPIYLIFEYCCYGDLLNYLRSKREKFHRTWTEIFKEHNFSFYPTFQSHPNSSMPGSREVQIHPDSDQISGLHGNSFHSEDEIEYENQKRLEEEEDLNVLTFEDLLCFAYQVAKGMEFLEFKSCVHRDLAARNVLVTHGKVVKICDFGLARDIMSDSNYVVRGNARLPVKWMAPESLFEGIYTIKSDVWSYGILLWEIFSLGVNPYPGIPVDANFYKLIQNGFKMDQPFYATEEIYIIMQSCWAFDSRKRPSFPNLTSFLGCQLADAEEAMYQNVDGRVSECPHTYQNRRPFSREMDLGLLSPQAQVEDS

[11] = target: Dual specificity testis-specific protein kinase 1 (Homo sapiens) (UniProt Q15569); test: Binding affinity to wild-type human full length TESK1 (R37 to S626 residues) expressed in bacterial expression system assessed as residual binding level at 10 uM by Kinomescan method relative to control
[12] = target: Glycogen synthase kinase-3 (Sus scrofa, UniProt B2LUN4+I6LNT8)
Description: Inhibition of native porcine brain GSK-3alpha/beta using GS-1 as substrate incubated for 30 mins in presence of [gamma-33P]ATP by liquid scintillation counting assay

[13] = tested on: Epidermal growth factor receptor (Homo sapiens), P00533 [UNDEFINED MUTATION]; test: Binding affinity to human partial length EGFR L747-T751del/Sins mutant expressed in bacterial expression system assessed as residual binding level at 10 uM by Kinomescan method relative to control
[14] = tested on: Receptor-type tyrosine-protein kinase FLT3 (Homo sapiens), P36888 [UNDEFINED MUTATION]; test: Binding affinity to human partial length FLT3 ITD/D835V double mutant expressed in bacterial expression system assessed as residual binding level at 10 uM by Kinomescan method relative to control
[15] = target: Homeodomain-interacting protein kinase 4 (Homo sapiens) (UniProt Q8NE63); test: Binding affinity to wild-type human partial length HIPK4 (M1 to V384 residues) expressed in bacterial expression system assessed as residual binding level at 10 uM by Kinomescan method relative to control
[16] = target: Phosphorylase b kinase gamma catalytic chain, skeletal muscle/heart isoform (Homo sapiens) (UniProt Q16816); test: Binding affinity to wild-type human full length PHKG1 (M1 to Y387 residues) expressed in bacterial expression system assessed as residual binding level at 10 uM by Kinomescan method relative to control
[17] = target: RAC-alpha serine/threonine-protein kinase (Homo sapiens) (UniProt P31749); test: Binding affinity to wild-type human partial length AKT1 expressed in bacterial expression system assessed as residual binding level at 10 uM by Kinomescan method relative to control
RAC-alpha serine/threonine-protein kinase (Homo sapiens), sequence (P31749 whole entry, the tested form may be a part): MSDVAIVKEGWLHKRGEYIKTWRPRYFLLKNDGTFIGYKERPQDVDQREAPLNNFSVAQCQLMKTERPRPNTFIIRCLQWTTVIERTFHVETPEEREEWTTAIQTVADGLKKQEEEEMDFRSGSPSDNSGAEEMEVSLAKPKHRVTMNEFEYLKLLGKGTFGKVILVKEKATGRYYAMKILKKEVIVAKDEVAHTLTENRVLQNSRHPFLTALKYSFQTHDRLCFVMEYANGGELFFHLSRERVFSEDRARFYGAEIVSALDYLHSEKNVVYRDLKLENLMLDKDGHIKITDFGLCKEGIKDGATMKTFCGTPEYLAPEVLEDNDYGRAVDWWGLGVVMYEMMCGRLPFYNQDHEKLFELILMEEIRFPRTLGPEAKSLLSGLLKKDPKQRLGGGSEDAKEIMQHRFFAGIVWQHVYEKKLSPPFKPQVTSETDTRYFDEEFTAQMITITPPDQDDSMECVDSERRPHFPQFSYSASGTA

[18] = tested on: Mast/stem cell growth factor receptor Kit (Homo sapiens), P10721 [D816H]; test: Binding affinity to human partial length KIT D816H mutant (I571 to D952 residues) expressed in mammalian expression system assessed as residual binding level at 10 uM by Kinomescan method relative to control
[19] = target: 5'-AMP-activated protein kinase catalytic subunit alpha-1 (Homo sapiens) (UniProt Q13131); test: Binding affinity to wild-type human partial length AMPK alpha1 (M1 to E306 residues) expressed in bacterial expression system assessed as residual binding level at 10 uM by Kinomescan method relative to control
[20] = target: Mitogen-activated protein kinase kinase kinase 3 (Homo sapiens) (UniProt Q99759); test: Binding affinity to wild-type human partial length MAP3K3 (E320 to Y626 residues) expressed in mammalian expression system assessed as residual binding level at 10 uM by Kinomescan method relative to control
[21] = tested on: ALK tyrosine kinase receptor (Homo sapiens), Q9UM73 [L1196M]; test: Binding affinity to wild-type human partial length ALK L1196M mutant (I1088 to E1409 residues) expressed in mammalian expression system assessed as residual binding level at 10 uM by Kinomescan method relative to control
[22] = target: STE20-like serine/threonine-protein kinase (Homo sapiens) (UniProt Q9H2G2); test: Binding affinity to wild-type human partial length SLK (S14 to A307 residues) expressed in bacterial expression system assessed as residual binding level at 10 uM by Kinomescan method relative to control
STE20-like serine/threonine-protein kinase (Homo sapiens), sequence (Q9H2G2 whole entry, looked up, the tested form may be a part): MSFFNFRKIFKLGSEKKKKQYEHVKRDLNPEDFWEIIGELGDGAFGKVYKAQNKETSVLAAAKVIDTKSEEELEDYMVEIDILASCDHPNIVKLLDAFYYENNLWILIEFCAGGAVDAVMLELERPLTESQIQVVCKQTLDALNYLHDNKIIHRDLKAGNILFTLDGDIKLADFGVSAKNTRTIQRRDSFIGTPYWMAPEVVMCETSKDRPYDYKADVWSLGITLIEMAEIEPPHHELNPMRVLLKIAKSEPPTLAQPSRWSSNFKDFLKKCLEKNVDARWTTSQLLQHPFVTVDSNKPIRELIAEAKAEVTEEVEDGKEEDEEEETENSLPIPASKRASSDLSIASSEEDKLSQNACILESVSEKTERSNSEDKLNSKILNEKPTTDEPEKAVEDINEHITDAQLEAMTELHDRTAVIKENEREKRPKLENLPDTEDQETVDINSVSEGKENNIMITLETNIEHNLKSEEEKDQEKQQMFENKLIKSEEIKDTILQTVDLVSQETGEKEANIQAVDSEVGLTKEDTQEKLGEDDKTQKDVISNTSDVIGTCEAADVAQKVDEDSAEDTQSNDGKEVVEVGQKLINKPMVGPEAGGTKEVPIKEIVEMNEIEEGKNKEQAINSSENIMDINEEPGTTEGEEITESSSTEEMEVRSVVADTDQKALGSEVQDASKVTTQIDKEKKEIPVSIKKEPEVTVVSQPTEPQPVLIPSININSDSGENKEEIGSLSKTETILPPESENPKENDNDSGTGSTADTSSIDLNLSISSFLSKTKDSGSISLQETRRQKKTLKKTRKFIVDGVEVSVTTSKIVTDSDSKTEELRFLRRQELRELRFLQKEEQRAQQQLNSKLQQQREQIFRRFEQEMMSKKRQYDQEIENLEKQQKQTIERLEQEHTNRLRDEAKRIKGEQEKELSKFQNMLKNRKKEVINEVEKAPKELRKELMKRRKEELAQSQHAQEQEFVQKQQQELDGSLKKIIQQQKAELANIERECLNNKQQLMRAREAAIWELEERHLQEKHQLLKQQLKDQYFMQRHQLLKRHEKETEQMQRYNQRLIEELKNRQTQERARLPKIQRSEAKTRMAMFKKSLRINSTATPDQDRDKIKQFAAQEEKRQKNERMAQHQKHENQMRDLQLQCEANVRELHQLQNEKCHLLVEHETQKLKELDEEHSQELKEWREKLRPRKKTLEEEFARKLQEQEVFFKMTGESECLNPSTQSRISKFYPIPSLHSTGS

[23] = target: Serine/threonine-protein kinase 32C (Homo sapiens) (UniProt Q86UX6); test: Binding affinity to wild-type human partial length YANK3 (M68 to G486 residues) expressed in bacterial expression system assessed as residual binding level at 10 uM by Kinomescan method relative to control
Serine/threonine-protein kinase 32C (Homo sapiens), sequence (Q86UX6 whole entry, the tested form may be a part): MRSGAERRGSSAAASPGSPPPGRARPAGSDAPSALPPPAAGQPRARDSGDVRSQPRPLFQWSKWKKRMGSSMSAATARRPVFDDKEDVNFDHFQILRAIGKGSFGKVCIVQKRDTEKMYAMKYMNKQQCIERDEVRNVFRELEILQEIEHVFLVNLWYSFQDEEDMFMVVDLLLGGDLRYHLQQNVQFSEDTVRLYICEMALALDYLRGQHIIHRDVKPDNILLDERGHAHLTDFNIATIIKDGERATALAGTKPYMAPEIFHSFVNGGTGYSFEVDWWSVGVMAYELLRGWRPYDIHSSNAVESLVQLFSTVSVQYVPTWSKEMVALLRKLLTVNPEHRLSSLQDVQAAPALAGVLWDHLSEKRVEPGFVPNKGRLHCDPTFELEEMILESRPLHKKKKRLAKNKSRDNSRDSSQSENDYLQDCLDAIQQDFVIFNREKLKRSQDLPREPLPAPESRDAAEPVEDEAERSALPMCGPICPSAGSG

[24] = tested on: eIF-2-alpha kinase GCN2 (Homo sapiens), Q9P2K8 [S808G]; test: Binding affinity to wild-type human partial length GCN2 kinase domain 2 (R585 to T1018 residues) S808G mutant expressed in bacterial expression system assessed as residual binding level at 10 uM by Kinomescan method relative to control
[25] = target: Ribosomal protein S6 kinase alpha-5 (Homo sapiens) (UniProt O75582); test: Binding affinity to wild-type human partial length C-terminal RPS6KA5 kinase domain 2 (V390 to T718 residues) expressed in bacterial expression system assessed as residual binding level at 10 uM by Kinomescan method relative to control

**Q.** Which Activity [1] does the source give for `O=C(Nc1cc(-c2cn(CCNc3c4c(nc5ccccc35)CCCC4)nn2)ccn1)Nc1cccc2c1C1CCCCN1C2=O` (racemic) here?
**A.** The Activity was 15%.

**Q.** What about the Activity [2] of the same compound?
**A.** Its Activity is 54%.

**Q.** And the Activity [3]?
**A.** Its Activity is 94%.

**Q.** What about the IC50 [4] of the same compound?
**A.** Its IC50 is 800 nM.

**Q.** What about the Activity [5] of the same compound?
**A.** The Activity was 31%.

**Q.** And the Activity [6]?
**A.** Its Activity is 49%.

**Q.** What about the Activity [7] of the same compound?
**A.** The Activity was 48%.

**Q.** And the Activity [8]?
**A.** Its Activity is 67%.

**Q.** What about the Activity [9] of the same compound?
**A.** The Activity was 0.3%.

**Q.** And the Activity [10]?
**A.** Its Activity is 0.25%.

**Q.** What about the Activity [11] of the same compound?
**A.** The Activity was 75%.

**Q.** What about the IC50 [12] of the same compound?
**A.** The IC50 was 16 nM.

**Q.** And the Activity [13]?
**A.** Its Activity is 75%.

**Q.** And the Activity [14]?
**A.** Its Activity is 0.23%.

**Q.** What about the Activity [15] of the same compound?
**A.** Its Activity is 84%.

**Q.** And the Activity [16]?
**A.** The Activity was 54%.

**Q.** And the Activity [17]?
**A.** The Activity was 100%.

**Q.** What about the Activity [18] of the same compound?
**A.** Its Activity is 2.2%.

**Q.** What about the Activity [19] of the same compound?
**A.** Its Activity is 31%.

**Q.** What about the Activity [20] of the same compound?
**A.** Its Activity is 22%.

**Q.** What about the Activity [21] of the same compound?
**A.** Its Activity is 100%.

**Q.** And the Activity [22]?
**A.** The Activity was 30%.

**Q.** What about the Activity [23] of the same compound?
**A.** Its Activity is 75%.

**Q.** And the Activity [24]?
**A.** Its Activity is 75%.

**Q.** And the Activity [25]?
**A.** The Activity was 96%.
